According to ChEMBL document CHEMBL5291721, “A preclinical secondary pharmacology resource illuminates target-adverse drug reaction associations of marketed drugs” (Nat Commun, 2023):

Columns and labels:
[1] = molecular target: Bile salt export pump (Homo sapiens, UniProt O95342); type: functional
[2] = molecular target: Adenosine receptor A2a (Homo sapiens, UniProt P29274)
[3] = molecular target: Beta-1 adrenergic receptor (Homo sapiens, UniProt P08588); type: functional
[4] = molecular target: Beta-2 adrenergic receptor (Homo sapiens, UniProt P07550); type: functional, cell-based
Beta-2 adrenergic receptor, sequence (P07550 whole entry): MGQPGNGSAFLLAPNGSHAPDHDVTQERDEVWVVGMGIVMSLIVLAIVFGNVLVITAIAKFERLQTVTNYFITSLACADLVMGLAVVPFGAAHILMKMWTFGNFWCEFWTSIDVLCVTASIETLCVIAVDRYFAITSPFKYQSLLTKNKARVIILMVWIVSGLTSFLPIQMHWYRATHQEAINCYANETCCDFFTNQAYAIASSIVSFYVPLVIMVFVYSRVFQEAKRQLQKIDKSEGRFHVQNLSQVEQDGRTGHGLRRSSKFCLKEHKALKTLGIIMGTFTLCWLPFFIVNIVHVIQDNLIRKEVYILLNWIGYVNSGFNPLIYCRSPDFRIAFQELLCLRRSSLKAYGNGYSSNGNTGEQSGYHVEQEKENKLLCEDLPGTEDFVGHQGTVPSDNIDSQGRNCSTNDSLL

[5] = molecular target: T1, 5-hydroxytryptamine receptor 1A (Homo sapiens, UniProt P08908); type: functional, cell-based
T1 sequence (P08908 whole entry): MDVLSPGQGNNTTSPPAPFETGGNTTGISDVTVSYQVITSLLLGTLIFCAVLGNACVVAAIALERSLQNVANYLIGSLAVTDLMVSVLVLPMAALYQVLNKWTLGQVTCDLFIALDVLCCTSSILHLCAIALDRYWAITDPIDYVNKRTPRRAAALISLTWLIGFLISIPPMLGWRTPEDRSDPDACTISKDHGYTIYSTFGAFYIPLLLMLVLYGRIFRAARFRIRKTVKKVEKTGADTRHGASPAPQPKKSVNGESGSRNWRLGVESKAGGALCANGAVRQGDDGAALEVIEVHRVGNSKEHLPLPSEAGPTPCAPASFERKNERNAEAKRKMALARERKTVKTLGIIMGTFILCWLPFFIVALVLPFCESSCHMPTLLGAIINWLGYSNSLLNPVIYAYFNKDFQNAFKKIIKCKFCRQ

[6] = molecular target: 5-hydroxytryptamine receptor 2B (Homo sapiens, UniProt P41595); type: functional, cell-based
5-hydroxytryptamine receptor 2B, sequence (P41595 whole entry): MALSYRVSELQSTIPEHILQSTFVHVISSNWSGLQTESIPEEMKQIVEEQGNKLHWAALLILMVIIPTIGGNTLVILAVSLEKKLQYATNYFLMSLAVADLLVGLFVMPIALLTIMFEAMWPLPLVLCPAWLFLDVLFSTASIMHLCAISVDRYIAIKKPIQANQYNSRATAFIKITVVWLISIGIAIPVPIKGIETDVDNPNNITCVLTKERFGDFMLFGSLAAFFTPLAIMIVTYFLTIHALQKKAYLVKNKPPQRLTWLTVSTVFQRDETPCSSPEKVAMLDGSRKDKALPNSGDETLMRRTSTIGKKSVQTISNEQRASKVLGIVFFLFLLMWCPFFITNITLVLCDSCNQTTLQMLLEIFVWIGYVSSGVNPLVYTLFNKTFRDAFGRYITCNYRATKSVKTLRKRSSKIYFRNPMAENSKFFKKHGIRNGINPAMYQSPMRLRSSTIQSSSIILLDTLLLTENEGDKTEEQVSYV

[7] = molecular target: T2, Progesterone receptor (Homo sapiens, UniProt P06401); type: functional
T2 sequence (P06401 whole entry): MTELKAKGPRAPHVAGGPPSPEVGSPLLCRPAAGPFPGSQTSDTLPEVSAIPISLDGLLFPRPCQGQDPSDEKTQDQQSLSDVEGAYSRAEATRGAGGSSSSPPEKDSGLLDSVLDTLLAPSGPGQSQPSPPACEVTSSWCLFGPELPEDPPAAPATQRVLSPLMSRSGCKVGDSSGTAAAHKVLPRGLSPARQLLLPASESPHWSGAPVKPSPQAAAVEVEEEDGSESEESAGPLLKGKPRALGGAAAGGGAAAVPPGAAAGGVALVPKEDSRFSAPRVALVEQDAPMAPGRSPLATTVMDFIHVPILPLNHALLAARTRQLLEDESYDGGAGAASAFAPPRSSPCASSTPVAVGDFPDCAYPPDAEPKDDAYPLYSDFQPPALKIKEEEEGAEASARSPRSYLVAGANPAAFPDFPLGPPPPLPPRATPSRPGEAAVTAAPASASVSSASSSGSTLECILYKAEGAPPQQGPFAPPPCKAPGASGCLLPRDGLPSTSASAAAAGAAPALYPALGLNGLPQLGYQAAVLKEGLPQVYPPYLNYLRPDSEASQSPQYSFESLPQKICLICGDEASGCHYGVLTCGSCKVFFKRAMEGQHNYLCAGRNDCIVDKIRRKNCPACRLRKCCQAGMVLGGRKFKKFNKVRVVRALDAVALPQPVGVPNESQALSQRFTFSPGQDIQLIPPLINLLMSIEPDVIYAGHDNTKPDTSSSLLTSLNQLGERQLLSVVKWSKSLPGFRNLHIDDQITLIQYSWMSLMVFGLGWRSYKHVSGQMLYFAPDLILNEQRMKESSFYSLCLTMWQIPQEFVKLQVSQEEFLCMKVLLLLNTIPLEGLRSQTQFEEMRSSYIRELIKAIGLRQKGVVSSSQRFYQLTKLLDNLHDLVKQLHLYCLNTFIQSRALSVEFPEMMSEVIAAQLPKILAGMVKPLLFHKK

[8] = molecular target: T3, Gastrin/cholecystokinin type B receptor (Homo sapiens, UniProt P32239)
T3 sequence (P32239 whole entry): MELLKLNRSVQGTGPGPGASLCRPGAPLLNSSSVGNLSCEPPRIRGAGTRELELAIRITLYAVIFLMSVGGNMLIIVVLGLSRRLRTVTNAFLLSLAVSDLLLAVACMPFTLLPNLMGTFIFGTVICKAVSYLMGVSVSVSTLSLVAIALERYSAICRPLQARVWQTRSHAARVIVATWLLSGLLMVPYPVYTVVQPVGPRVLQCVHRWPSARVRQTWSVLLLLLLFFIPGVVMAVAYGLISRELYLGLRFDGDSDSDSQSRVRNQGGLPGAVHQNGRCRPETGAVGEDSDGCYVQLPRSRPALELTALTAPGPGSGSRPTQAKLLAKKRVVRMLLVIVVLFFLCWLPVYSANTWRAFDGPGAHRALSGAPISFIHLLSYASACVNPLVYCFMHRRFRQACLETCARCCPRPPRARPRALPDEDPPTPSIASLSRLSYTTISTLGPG

[9] = molecular target: Gamma-aminobutyric acid receptor subunit alpha-1 (Rattus norvegicus, UniProt P62813)
Gamma-aminobutyric acid receptor subunit alpha-1, sequence (P62813 whole entry): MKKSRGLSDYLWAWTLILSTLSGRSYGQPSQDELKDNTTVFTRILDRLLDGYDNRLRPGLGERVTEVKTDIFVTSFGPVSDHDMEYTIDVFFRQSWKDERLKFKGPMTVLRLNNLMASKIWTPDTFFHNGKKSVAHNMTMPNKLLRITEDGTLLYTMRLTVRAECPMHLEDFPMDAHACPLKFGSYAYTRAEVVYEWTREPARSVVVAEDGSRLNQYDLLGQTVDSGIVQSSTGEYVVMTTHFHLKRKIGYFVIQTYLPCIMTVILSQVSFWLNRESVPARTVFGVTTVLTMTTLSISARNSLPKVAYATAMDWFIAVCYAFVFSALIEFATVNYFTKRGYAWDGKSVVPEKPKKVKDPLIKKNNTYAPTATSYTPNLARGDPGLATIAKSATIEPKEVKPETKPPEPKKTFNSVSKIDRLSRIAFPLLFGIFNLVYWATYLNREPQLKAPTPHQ

[10] = molecular target: T4, Alpha-2A adrenergic receptor (Homo sapiens, UniProt P08913)
T4 sequence (P08913 whole entry): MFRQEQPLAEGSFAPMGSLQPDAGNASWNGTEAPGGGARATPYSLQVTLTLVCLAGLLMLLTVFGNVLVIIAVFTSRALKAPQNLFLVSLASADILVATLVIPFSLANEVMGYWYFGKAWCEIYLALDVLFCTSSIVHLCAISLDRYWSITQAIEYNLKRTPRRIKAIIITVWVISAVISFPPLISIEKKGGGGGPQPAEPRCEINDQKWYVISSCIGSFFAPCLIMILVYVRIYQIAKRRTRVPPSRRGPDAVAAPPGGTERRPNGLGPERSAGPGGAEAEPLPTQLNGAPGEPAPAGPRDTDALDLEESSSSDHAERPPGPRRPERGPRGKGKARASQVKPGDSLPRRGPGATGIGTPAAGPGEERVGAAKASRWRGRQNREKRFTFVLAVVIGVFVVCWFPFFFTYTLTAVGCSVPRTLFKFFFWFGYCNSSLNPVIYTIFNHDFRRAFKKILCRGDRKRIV

[11] = molecular target: T2, Progesterone receptor
[12] = molecular target: Sodium-dependent serotonin transporter (Homo sapiens, UniProt P31645)
Sodium-dependent serotonin transporter, sequence (P31645 whole entry): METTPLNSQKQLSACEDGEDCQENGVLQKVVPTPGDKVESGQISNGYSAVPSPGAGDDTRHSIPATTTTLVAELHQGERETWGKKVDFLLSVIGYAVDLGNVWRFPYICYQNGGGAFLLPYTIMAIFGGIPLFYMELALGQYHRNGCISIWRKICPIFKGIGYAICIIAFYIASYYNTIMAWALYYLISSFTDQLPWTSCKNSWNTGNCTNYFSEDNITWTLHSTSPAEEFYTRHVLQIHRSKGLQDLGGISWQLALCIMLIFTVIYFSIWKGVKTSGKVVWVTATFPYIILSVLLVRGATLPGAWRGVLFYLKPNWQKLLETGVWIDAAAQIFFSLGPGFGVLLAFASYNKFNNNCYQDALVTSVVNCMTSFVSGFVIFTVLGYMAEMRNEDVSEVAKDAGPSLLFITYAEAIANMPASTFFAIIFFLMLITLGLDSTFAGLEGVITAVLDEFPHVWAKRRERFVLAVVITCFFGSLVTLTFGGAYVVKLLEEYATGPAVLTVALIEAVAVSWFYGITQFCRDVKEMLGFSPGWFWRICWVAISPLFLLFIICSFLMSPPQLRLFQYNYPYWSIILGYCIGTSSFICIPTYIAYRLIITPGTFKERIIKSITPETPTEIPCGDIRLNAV
Note: assay procedure not described here.

Adenosine receptor A2a, sequence (P29274 whole entry): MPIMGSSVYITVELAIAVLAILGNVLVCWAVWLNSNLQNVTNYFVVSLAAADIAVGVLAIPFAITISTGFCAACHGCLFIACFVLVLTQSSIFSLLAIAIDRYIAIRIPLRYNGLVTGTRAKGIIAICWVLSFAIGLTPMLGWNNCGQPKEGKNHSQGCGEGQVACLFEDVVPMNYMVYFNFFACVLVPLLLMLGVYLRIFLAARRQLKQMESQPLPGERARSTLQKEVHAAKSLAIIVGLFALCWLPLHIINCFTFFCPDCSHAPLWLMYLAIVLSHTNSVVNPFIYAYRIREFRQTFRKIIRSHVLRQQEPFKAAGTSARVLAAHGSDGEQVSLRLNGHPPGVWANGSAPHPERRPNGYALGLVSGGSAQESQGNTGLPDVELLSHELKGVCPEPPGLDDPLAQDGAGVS
Bile salt export pump, sequence (O95342 whole entry): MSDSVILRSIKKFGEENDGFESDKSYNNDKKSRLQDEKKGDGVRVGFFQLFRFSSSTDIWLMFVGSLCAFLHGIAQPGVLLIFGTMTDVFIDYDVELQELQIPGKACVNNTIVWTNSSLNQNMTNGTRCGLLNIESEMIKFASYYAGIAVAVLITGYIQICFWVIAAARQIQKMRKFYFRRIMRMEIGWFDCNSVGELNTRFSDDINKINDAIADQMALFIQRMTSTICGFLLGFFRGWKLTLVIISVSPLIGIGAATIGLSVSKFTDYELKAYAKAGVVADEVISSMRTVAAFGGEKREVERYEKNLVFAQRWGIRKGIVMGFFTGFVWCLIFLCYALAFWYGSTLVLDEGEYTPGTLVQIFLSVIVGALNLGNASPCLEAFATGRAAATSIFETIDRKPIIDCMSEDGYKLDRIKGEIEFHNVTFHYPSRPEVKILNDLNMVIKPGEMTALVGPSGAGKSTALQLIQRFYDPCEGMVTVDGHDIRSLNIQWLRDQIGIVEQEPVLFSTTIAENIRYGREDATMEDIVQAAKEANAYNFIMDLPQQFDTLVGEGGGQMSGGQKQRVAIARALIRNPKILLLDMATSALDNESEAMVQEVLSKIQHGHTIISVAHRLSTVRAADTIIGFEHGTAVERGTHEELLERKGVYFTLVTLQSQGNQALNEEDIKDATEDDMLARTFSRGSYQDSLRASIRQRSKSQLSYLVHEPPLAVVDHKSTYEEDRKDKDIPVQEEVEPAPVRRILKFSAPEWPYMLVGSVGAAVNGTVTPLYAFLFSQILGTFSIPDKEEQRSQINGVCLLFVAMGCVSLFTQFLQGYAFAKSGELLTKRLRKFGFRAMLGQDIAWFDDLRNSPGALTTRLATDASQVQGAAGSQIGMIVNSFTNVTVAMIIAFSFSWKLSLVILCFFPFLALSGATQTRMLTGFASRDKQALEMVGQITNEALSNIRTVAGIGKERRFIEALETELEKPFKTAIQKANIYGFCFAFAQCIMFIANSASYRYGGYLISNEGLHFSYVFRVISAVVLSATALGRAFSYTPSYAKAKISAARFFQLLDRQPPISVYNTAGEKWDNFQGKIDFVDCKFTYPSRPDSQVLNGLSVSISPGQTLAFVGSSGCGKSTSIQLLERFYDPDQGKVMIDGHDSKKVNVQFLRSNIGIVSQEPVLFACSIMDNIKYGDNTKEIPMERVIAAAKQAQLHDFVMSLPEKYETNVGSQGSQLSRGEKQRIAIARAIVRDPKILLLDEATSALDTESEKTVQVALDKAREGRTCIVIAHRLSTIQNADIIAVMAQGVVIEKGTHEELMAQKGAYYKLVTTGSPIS
Beta-1 adrenergic receptor, sequence (P08588 whole entry): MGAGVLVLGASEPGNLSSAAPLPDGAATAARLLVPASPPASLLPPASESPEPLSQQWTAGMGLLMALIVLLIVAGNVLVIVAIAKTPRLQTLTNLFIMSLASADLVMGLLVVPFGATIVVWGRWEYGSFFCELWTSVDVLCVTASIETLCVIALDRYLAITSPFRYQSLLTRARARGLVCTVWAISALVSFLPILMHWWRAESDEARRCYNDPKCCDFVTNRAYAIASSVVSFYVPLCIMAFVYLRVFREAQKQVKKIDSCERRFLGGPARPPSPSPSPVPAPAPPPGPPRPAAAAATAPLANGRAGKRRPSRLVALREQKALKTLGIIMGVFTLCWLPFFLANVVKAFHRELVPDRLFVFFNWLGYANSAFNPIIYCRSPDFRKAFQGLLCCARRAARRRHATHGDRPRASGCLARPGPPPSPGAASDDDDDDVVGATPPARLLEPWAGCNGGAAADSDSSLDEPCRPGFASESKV

| SMILES | AC50 [1] [µM] | AC50 [2] [µM] | AC50 [3] [µM] | AC50 [4] [µM] | AC50 [5] [µM] | AC50 [6] [µM] | AC50 [7] [µM] | AC50 [8] [µM] | AC50 [9] [µM] | AC50 [10] [µM] | AC50 [11] [µM] | AC50 [12] [µM] |
| --- | --- | --- | --- | --- | --- | --- | --- | --- | --- | --- | --- | --- |
| CCCN(CCc1cccs1)[C@H]1CCc2c(O)cccc2C1 [ROTIGOTINE] | 260 | > 30 | > 30 | > 30 | > 10 | 0.43 | > 30 |  |  |  |  |  |
| CC[C@@H](CO)NC(=O)[C@@H]1C=C2c3cccc4[nH]cc(c34)C[C@H]2N(C)C1 [METHYLERGONOVINE] | > 300 | > 30 |  | > 30 | 0.0144 | 0.0257 | > 30 | > 30 | > 30 |  |  |  |
| [H]/N=C(\N/C(=N/[H])NCCCCCCNC(=N)NC(=N)Nc1ccc(Cl)cc1)Nc1ccc(Cl)cc1 [CHLORHEXIDINE] | 170 | > 30 | 1.4 | > 30 | > 30 | > 30 | > 30 |  | > 10 |  |  |  |
| CC1(C)O[C@@H]2[C@@H](CO[C@@]3(COS(N)(=O)=O)OC(C)(C)O[C@@H]23)O1 [TOPIRAMATE] | > 300 | > 30 | > 10 |  | > 10 | > 10 |  | > 30 | > 10 | > 30 | > 30 | > 30 |
| Cc1cnc(NC(=O)C2=C(O)c3ccccc3S(=O)(=O)N2C)s1 [MELOXICAM] | 160 | > 30 | > 10 | > 30 | > 10 | > 10 |  | > 30 | > 10 |  |  |  |
| O=C1CN2Cc3c(ccc(Cl)c3Cl)N=C2N1 [ANAGRELIDE] | > 300 | > 30 | > 10 | > 30 | > 30 | > 10 |  | > 30 | > 10 |  |  |  |
| CC[C@H]1OC(=O)[C@H](C)[C@@H](O[C@H]2C[C@@](C)(OC)[C@@H](O)[C@H](C)O2)[C@H](C)[C@@H](O[C@@H]2O[C@H](C)C[C@H](N(C)C)[C@H]2O)[C@](C)(O)C[C@@H](C)/C(=N\OCOCCOC)[C@H](C)[C@@H](O)[C@]1(C)O [ROXITHROMYCIN] | > 300 | > 30 | > 30 | > 30 | > 30 | > 30 | > 30 |  |  |  |  |  |
| CC(=O)S[C@@H]1CC2=CC(=O)CC[C@]2(C)[C@H]2CC[C@@]3(C)[C@@H](CC[C@@]34CCC(=O)O4)[C@H]12 [SPIRONOLACTONE] | 26 | > 30 | > 30 | > 30 | > 30 | > 30 |  | > 30 | > 10 |  |  |  |
| COC(=O)[C@H](c1ccccc1Cl)N1CCc2sccc2C1 [CLOPIDOGREL] | 40 | > 30 |  | > 30 | > 30 | > 30 | > 30 | > 30 | > 30 |  |  |  |
| C=C(C)[C@@H]1CCC(C)=C[C@H]1c1c(O)cc(CCCCC)cc1O [CANNABIDIOL] | 53 | > 30 | > 30 | > 30 | > 10 | > 30 | > 30 |  |  |  |  |  |
| CC(=N)N1CC[C@H](SC2=C(C(=O)O)N3C(=O)[C@H]([C@@H](C)O)[C@H]3C2)C1 | > 300 | 300 | 230 | > 300 | > 300 | > 300 | > 300 |  |  |  |  |  |
| CC(=O)Oc1ccccc1C(=O)Nc1ncc([N+](=O)[O-])s1 [NITAZOXANIDE] | 45 | 8.8 | 8.8 |  | > 30 | > 30 | > 30 | 10 | > 30 | > 30 | > 30 | > 30 |
| CCOc1cc(CC(=O)N[C@@H](CC(C)C)c2ccccc2N2CCCCC2)ccc1C(=O)O [REPAGLINIDE] | 9.33 | > 30 | > 30 | > 30 | > 30 | > 10 | > 30 |  |  |  |  |  |
| Cn1c(=O)c2[nH]cnc2n(C)c1=O [THEOPHYLLINE] | > 300 |  | > 10 | > 30 | > 10 | > 10 |  | > 30 | > 10 | > 30 | > 30 |  |
| CO/N=C(\C(=O)N[C@@H]1C(=O)N2C(C(=O)O)=C(COC(N)=O)CS[C@H]12)c1ccco1 [CEFUROXIME] | > 300 | > 30 | > 30 | > 30 | > 30 | > 30 |  | > 30 |  |  |  |  |
| COc1ccnc(C[S+]([O-])c2nc3ccc(OC(F)F)cc3[nH]2)c1OC (configuration not stated) [PANTOPRAZOLE] | 190 | > 30 | > 10 | > 30 | > 10 | > 10 |  | > 30 | > 10 |  |  |  |
| CC1(C)O[C@@H]2C[C@H]3[C@@H]4C[C@H](F)C5=CC(=O)C=C[C@]5(C)[C@H]4[C@@H](O)C[C@]3(C)[C@]2(C(=O)CO)O1 [FLUNISOLIDE] | 77 | > 30 | > 30 | > 30 | > 30 | > 30 | 0.64 |  |  |  |  |  |
| C[C@H]1Oc2cc(cnc2N)-c2c(nn(C)c2C#N)CN(C)C(=O)c2ccc(F)cc21 [LORLATINIB] | 120 | > 30 | > 30 | > 30 | > 30 | > 30 | > 30 |  |  |  |  |  |
| CC(=O)/N=c1/sc(S(N)(=O)=O)nn1C [METHAZOLAMIDE] | > 300 | > 10 | > 10 |  | > 10 | > 10 | > 10 |  | > 10 | > 30 | > 30 | > 30 |
